# Read-outs that look alike come from different tables or passages of the source.
# Columns and labels:
# Assay type in all cases: cell-based, mouse
# [1] = system: α7 integrin (LacZ reporter in α7βgal+/− myoblasts); assay: Myoblast α7+/LacZ integrin FDG assay (Burkin assay in myoblasts, 96-well); conditions: α7+/LacZ myoblasts, 96-well; for fold induction at 0.5 µM / fold induction at 1 µM / fold induction at 5 µM / fold induction at 10 µM / fold induction at 20 µM / fold induction at 40 µM: Mus musculus, Myoblast, 48 h
# [2] = system: β-galactosidase in CMV-LacZ C2C12 myotubes; assay: CMV-LacZ secondary screen in C2C12 myotubes (β-Gal stabilizing assay); conditions: for fold induction at 5 µM / fold induction at 10 µM / fold induction at 20 µM / fold induction at 40 µM: Mus musculus; for fold induction at 5 µM: C2C12, read-out: CMV-LACZ in Myotubes, signal relative to DMSO, 5 uM; for fold induction at 5 µM / fold induction at 10 µM / fold induction at 20 µM / fold induction at 40 µM / CMV-LACZ in Myotubes, signal relative to DMSO: C2C12 CMV-LacZ myotubes, fold relative to DMSO; for fold induction at 10 µM: C2C12, read-out: CMV-LACZ in Myotubes, signal relative to DMSO, 10 uM; for fold induction at 20 µM: C2C12, read-out: CMV-LACZ in Myotubes, signal relative to DMSO, 20 uM; for fold induction at 40 µM: C2C12, read-out: CMV-LACZ in Myotubes, signal relative to DMSO, 40 uM; for CMV-LACZ in Myotubes (β-galactosidase activity relative to DMSO): CMV-LacZ C2C12 myotubes, 96-well format
# How it was run: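 β-Gal level was the read-out, measured in a clonal C2C12 line expressing LacZ from a CMV promoter. Dose-response curves used six concentrations, 0.5 μM up to 40 μM, with duplicate points.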
# [3] = system: α7 integrin (LacZ reporter in α7+/LacZ myotubes); assay: Myotube α7 integrin FDG assay (Burkin assay in myotubes, 96-well); conditions: myotubes; for fold induction at 0.5 µM / fold induction at 1 µM / fold induction at 5 µM / fold induction at 10 µM / fold induction at 20 µM / fold induction at 40 µM: Mus musculus, Myotube
compound,measurement,setting,value
COc1ccc(-n2c(C)c(C(C)=O)c3cc(OC(C)=O)ccc32)cc1 [MLS001212998-01],fold induction at 0.5 µM,"[1]; 0.5 uM, read-out: Burkin Assay in Myoblasts, signal relative to DMSO",1.19
same,fold induction at 1 µM,"[1]; 1 uM, read-out: Burkin Assay in Myoblasts, signal relative to DMSO",1.2
same,fold induction at 5 µM,"[1]; 5 uM, read-out: Burkin Assay in Myoblasts, signal relative to DMSO",1.45
same,fold induction at 10 µM,"[1]; 10 uM, read-out: Burkin Assay in Myoblasts, signal relative to DMSO",1.54
same,fold induction at 20 µM,"[1]; 20 uM, read-out: Burkin Assay in Myoblasts, signal relative to DMSO",1.36
same,fold induction at 40 µM,"[1]; 40 uM, read-out: Burkin Assay in Myoblasts, signal relative to DMSO",1.3
same,fold induction at 5 µM,[2],0.78
same,fold induction at 10 µM,[2],0.908
same,fold induction at 20 µM,[2],0.972
same,fold induction at 40 µM,[2],0.783
same,fold induction at 0.5 µM,"[3]; 0.5 uM, read-out: Burkin Assay in Myotubes, α7 integrin LacZ reporter signal relative to DMSO",1.14
same,fold induction at 1 µM,"[3]; 1 uM, read-out: Burkin Assay in Myotubes, α7 integrin LacZ reporter signal relative to DMSO",1.1
same,fold induction at 5 µM,"[3]; 5 uM, read-out: Burkin Assay in Myotubes, α7 integrin LacZ reporter signal relative to DMSO",1.46
same,fold induction at 10 µM,"[3]; 10 uM, read-out: Burkin Assay in Myotubes, α7 integrin LacZ reporter signal relative to DMSO",1.45
same,fold induction at 20 µM,"[3]; 20 uM, read-out: Burkin Assay in Myotubes, α7 integrin LacZ reporter signal relative to DMSO",1.45
same,fold induction at 40 µM,"[3]; 40 uM, read-out: Burkin Assay in Myotubes, α7 integrin LacZ reporter signal relative to DMSO",1.05
Cc1ccccc1OCC(=O)Nc1nnc(-c2ccco2)s1 [MLS000333610-01],"Burkin Assay in Myoblasts, signal relative to DMSO",[1]; 0.5 uM,0.8664
same,"Burkin Assay in Myoblasts, signal relative to DMSO",[1]; 1 uM,0.9253
same,"Burkin Assay in Myoblasts, signal relative to DMSO",[1]; 5 uM,1.048
same,"Burkin Assay in Myoblasts, signal relative to DMSO",[1]; 10 uM,0.9188
same,"Burkin Assay in Myoblasts, signal relative to DMSO",[1]; 20 uM,0.7975
same,"Burkin Assay in Myoblasts, signal relative to DMSO",[1]; 40 uM,0.7794
same,"CMV-LACZ in Myotubes, signal relative to DMSO",[2]; 5 uM,0.832
same,"CMV-LACZ in Myotubes, signal relative to DMSO",[2]; 10 uM,0.7867
same,"CMV-LACZ in Myotubes, signal relative to DMSO",[2]; 20 uM,0.9429
same,"CMV-LACZ in Myotubes, signal relative to DMSO",[2]; 40 uM,0.9948
same,"Burkin Assay in Myotubes, α7 integrin LacZ reporter signal relative to DMSO",[3]; 0.5 uM,0.986
same,"Burkin Assay in Myotubes, α7 integrin LacZ reporter signal relative to DMSO",[3]; 1 uM,1.039
same,"Burkin Assay in Myotubes, α7 integrin LacZ reporter signal relative to DMSO",[3]; 5 uM,1.003
same,"Burkin Assay in Myotubes, α7 integrin LacZ reporter signal relative to DMSO",[3]; 10 uM,0.9932
same,"Burkin Assay in Myotubes, α7 integrin LacZ reporter signal relative to DMSO",[3]; 20 uM,0.8742
same,"Burkin Assay in Myotubes, α7 integrin LacZ reporter signal relative to DMSO",[3]; 40 uM,0.9096
Cc1nnc(NC(=O)CSc2nnc(CCNC(=O)c3ccccc3F)n2C)s1 [MLS001217045-01],"Burkin Assay in Myoblasts, value relative to DMSO",[1]; 0.5 uM,0.881
same,"Burkin Assay in Myoblasts, value relative to DMSO",[1]; 1 uM,0.9697
same,"Burkin Assay in Myoblasts, value relative to DMSO",[1]; 5 uM,1.087
same,"Burkin Assay in Myoblasts, value relative to DMSO",[1]; 10 uM,1.112
same,"Burkin Assay in Myoblasts, value relative to DMSO",[1]; 20 uM,1.057
same,"Burkin Assay in Myoblasts, value relative to DMSO",[1]; 40 uM,1.109
same,CMV-LACZ in Myotubes (β-galactosidase activity relative to DMSO),[2]; 5 uM,0.9613
same,CMV-LACZ in Myotubes (β-galactosidase activity relative to DMSO),[2]; 10 uM,0.9821
same,CMV-LACZ in Myotubes (β-galactosidase activity relative to DMSO),[2]; 20 uM,0.9272
same,CMV-LACZ in Myotubes (β-galactosidase activity relative to DMSO),[2]; 40 uM,0.9127
same,Burkin Assay in Myotubes (signal relative to DMSO),[3]; 0.5 uM,1.001
same,Burkin Assay in Myotubes (signal relative to DMSO),[3]; 1 uM,1.156
same,Burkin Assay in Myotubes (signal relative to DMSO),[3]; 5 uM,0.94
same,Burkin Assay in Myotubes (signal relative to DMSO),[3]; 10 uM,1.154
same,Burkin Assay in Myotubes (signal relative to DMSO),[3]; 20 uM,1.115
same,Burkin Assay in Myotubes (signal relative to DMSO),[3]; 40 uM,1.051
COc1ccccc1CNS(=O)(=O)c1ccc(Cl)s1 [MLS001175449-01],"Burkin Assay in Myoblasts, value relative to DMSO",[1]; 0.5 uM,1.0562
same,"Burkin Assay in Myoblasts, value relative to DMSO",[1]; 1 uM,1.036
same,"Burkin Assay in Myoblasts, value relative to DMSO",[1]; 5 uM,1.045
same,"Burkin Assay in Myoblasts, value relative to DMSO",[1]; 10 uM,0.9949
same,"Burkin Assay in Myoblasts, value relative to DMSO",[1]; 20 uM,1.066
same,"Burkin Assay in Myoblasts, value relative to DMSO",[1]; 40 uM,0.7564
same,"CMV-LACZ in Myotubes, signal relative to DMSO",[2]; 5 uM,0.8534
same,"CMV-LACZ in Myotubes, signal relative to DMSO",[2]; 10 uM,0.9034
same,"CMV-LACZ in Myotubes, signal relative to DMSO",[2]; 20 uM,0.889
same,"CMV-LACZ in Myotubes, signal relative to DMSO",[2]; 40 uM,0.8671
same,Burkin Assay in Myotubes (signal relative to DMSO),[3]; 0.5 uM,1.1188
same,Burkin Assay in Myotubes (signal relative to DMSO),[3]; 1 uM,1.016
same,Burkin Assay in Myotubes (signal relative to DMSO),[3]; 5 uM,1.156
same,Burkin Assay in Myotubes (signal relative to DMSO),[3]; 10 uM,0.9366
same,Burkin Assay in Myotubes (signal relative to DMSO),[3]; 20 uM,1.151
same,Burkin Assay in Myotubes (signal relative to DMSO),[3]; 40 uM,0.8041
Cc1cc(C(=O)Nc2cccc3ccccc23)c(C)o1 [MLS001219345-01],"Burkin Assay in Myoblasts, signal relative to DMSO",[1]; 0.5 uM,0.3027
same,"Burkin Assay in Myoblasts, signal relative to DMSO",[1]; 1 uM,1.119
same,"Burkin Assay in Myoblasts, signal relative to DMSO",[1]; 5 uM,1.046
same,"Burkin Assay in Myoblasts, signal relative to DMSO",[1]; 10 uM,1.014
same,"Burkin Assay in Myoblasts, signal relative to DMSO",[1]; 20 uM,0.9807
same,"Burkin Assay in Myoblasts, signal relative to DMSO",[1]; 40 uM,0.9227
same,"CMV-LACZ in Myotubes, signal relative to DMSO",[2]; 5 uM,1.188
same,"CMV-LACZ in Myotubes, signal relative to DMSO",[2]; 10 uM,0.8631
same,"CMV-LACZ in Myotubes, signal relative to DMSO",[2]; 20 uM,1.0075
same,"CMV-LACZ in Myotubes, signal relative to DMSO",[2]; 40 uM,1.0255
same,"Burkin Assay in Myotubes, α7 integrin LacZ reporter signal relative to DMSO",[3]; 0.5 uM,0.9416
same,"Burkin Assay in Myotubes, α7 integrin LacZ reporter signal relative to DMSO",[3]; 1 uM,0.9889
same,"Burkin Assay in Myotubes, α7 integrin LacZ reporter signal relative to DMSO",[3]; 5 uM,1.078
same,"Burkin Assay in Myotubes, α7 integrin LacZ reporter signal relative to DMSO",[3]; 10 uM,1.0424
same,"Burkin Assay in Myotubes, α7 integrin LacZ reporter signal relative to DMSO",[3]; 20 uM,0.7146
same,"Burkin Assay in Myotubes, α7 integrin LacZ reporter signal relative to DMSO",[3]; 40 uM,0.9232
COc1ccc(NC(=O)c2ccc3nc(C)sc3c2)cc1 [MLS001204005-01],fold induction at 0.5 µM,"[1]; 0.5 uM, read-out: Burkin Assay in Myoblasts, value relative to DMSO",1.08
same,fold induction at 1 µM,"[1]; 1 uM, read-out: Burkin Assay in Myoblasts, value relative to DMSO",1.15
same,fold induction at 5 µM,"[1]; 5 uM, read-out: Burkin Assay in Myoblasts, value relative to DMSO",1.02
same,fold induction at 10 µM,"[1]; 10 uM, read-out: Burkin Assay in Myoblasts, value relative to DMSO",1.24
same,fold induction at 20 µM,"[1]; 20 uM, read-out: Burkin Assay in Myoblasts, value relative to DMSO",1.23
same,fold induction at 40 µM,"[1]; 40 uM, read-out: Burkin Assay in Myoblasts, value relative to DMSO",1.17
same,fold induction at 5 µM,[2],0.94
same,fold induction at 10 µM,[2],1.14
same,fold induction at 20 µM,[2],1.02
same,fold induction at 40 µM,[2],0.781
same,fold induction at 0.5 µM,"[3]; 0.5 uM, read-out: Burkin Assay in Myotubes (signal relative to DMSO)",0.903
same,fold induction at 1 µM,"[3]; 1 uM, read-out: Burkin Assay in Myotubes (signal relative to DMSO)",0.987
same,fold induction at 5 µM,"[3]; 5 uM, read-out: Burkin Assay in Myotubes (signal relative to DMSO)",0.763
same,fold induction at 10 µM,"[3]; 10 uM, read-out: Burkin Assay in Myotubes (signal relative to DMSO)",1.02
same,fold induction at 20 µM,"[3]; 20 uM, read-out: Burkin Assay in Myotubes (signal relative to DMSO)",0.818
same,fold induction at 40 µM,"[3]; 40 uM, read-out: Burkin Assay in Myotubes (signal relative to DMSO)",1.16
Oc1c(Br)cc(Br)cc1CNc1cccc2cccnc12 [MLS001183429-01],"Burkin Assay in Myoblasts, signal relative to DMSO",[1]; 0.5 uM,0.7592
same,"Burkin Assay in Myoblasts, signal relative to DMSO",[1]; 1 uM,0.6652
same,"Burkin Assay in Myoblasts, signal relative to DMSO",[1]; 5 uM,0.7821
same,"Burkin Assay in Myoblasts, signal relative to DMSO",[1]; 10 uM,0.7373
same,"Burkin Assay in Myoblasts, signal relative to DMSO",[1]; 20 uM,0.5666
same,"Burkin Assay in Myoblasts, signal relative to DMSO",[1]; 40 uM,0.3329
same,"CMV-LACZ in Myotubes, signal relative to DMSO",[2]; 5 uM,0.8436
same,"CMV-LACZ in Myotubes, signal relative to DMSO",[2]; 10 uM,0.944
same,"CMV-LACZ in Myotubes, signal relative to DMSO",[2]; 20 uM,0.9105
same,"CMV-LACZ in Myotubes, signal relative to DMSO",[2]; 40 uM,0.5809
same,"Burkin Assay in Myotubes, α7 integrin LacZ reporter signal relative to DMSO",[3]; 0.5 uM,0.8042
same,"Burkin Assay in Myotubes, α7 integrin LacZ reporter signal relative to DMSO",[3]; 1 uM,0.823
same,"Burkin Assay in Myotubes, α7 integrin LacZ reporter signal relative to DMSO",[3]; 5 uM,0.8557
same,"Burkin Assay in Myotubes, α7 integrin LacZ reporter signal relative to DMSO",[3]; 10 uM,0.733
same,"Burkin Assay in Myotubes, α7 integrin LacZ reporter signal relative to DMSO",[3]; 20 uM,0.4076
same,"Burkin Assay in Myotubes, α7 integrin LacZ reporter signal relative to DMSO",[3]; 40 uM,0.2629

# Source: patent US9980943B2, “Methods of treating muscular dystrophy” (BOARD OF REGENTS OF THE NEVADA SYSTEM OF HIGHER EDUCATION, …, priority 2013, dated 2018)
